Assay results as given in paper PMC6270976, “Pharmacokinetic Study in Mice of Galphimine-A, an Anxiolytic Compound from Galphimia glauca” (Molecules, 2014).
Where two headings read alike, the source gives them in different places.

Experiments:
[1] = Brain tissue pharmacokinetics of G–A after a single oral dose in ICR mice (HPLC, PKSolver); assay type: in vivo
Experimental: Eighty-eight mice were randomly divided into 11 groups with eight individuals each. All animals were orally administered with 200 mg/kg of G–A dissolved in 5% β-cyclodextrin solution. Under ether-induced anesthesia, blood samples were obtained from the retroorbital sinus with heparinized cannula at different times (0, 5, 10, 15, 30, 60, 120, 240, 480, 720, and 1,440 min) after G–A administration. The volume of the blood samples was of 700 to 1000 microliters, which were collected in heparinized centrifuge microtubes, after the blood was centrifuged for 5 min at 1,720 × g.
Plasma samples were frozen at −70 °C, and lyophilized after. The obtained dry product was used to extract and measure the amount of G–A. After obtaining blood samples, all animals were perfused with isotonic saline solution (ISS) via cardiac puncture; the femoral vein was used to eliminate the perfusion liquid, until it appeared clear. Subsequently, the brain was removed. The brains were weighed fresh and frozen at −70 °C and then lyophilized. Once dry, the brains were weighed again to determine the volume of water contained in each brain. Dry tissue was ground in a mortar, and G–A was later extracted.
Dry pulverized samples (plasma and brain) were extracted with methanol (HPLC grade, Merck). The extracts were filtered with a 0.45 μm, 13 mm Teflon membrane (Millex®-LCR), and 20 μL of filtrate were injected into the HPLC equipment. Measurements were performed in a Waters 2695 HPLC, with diode array detector (Waters 2996) and the Empower Pro 1.0 software. A Chromolith Performance® RP-18e 100 × 4.6 mm (Merck KGaA Darmstadt, Germany) was used. The mobile phase consisted of a mixture of acetonitrile:water (55:45, 1 mL/min). G–A concentration was obtained by comparison with a pre-built calibration curve at λ = 220 nm.
To evaluate the suitability of the assay for pharmacokinetic studies, 200 mg/kg of G–A was orally administered to mice. Eight animals were used in each group different times (0, 5, 10, 15, 30, 60, 120, 240, 480, 720, and 1440 min). Pharmacokinetic calculations were performed using the observed data. All data were subsequently processed using PKSolver add-in program for Microsoft Excel written in Visual Basic for Applications. […]
The pharmacokinetic model selection either one or two-comparment, were used both the Akaike information criterion (AIC) and Schwarz criterion (SC). Using the criteria, one may select the model with which to reach a lower value of AIC or SC, which means that the chosen model is more parsimonious (less parameters required) and best fits the data (low error prediction).

[2] = Stability of G–A in mouse plasma under handling conditions; assay type: in vitro ADME; details: for Observed Concentration ± S.D.: n = 6
Experimental: (§1) The stability of G–A in mice plasma and brain was assessed by analyzing replicates (n = 6) of QC samples at concentrations of 0.8, 4.0 and 10 μg/mL for mice plasma and brain. The investigation covered expected conditions during all of the sample storage and process periods, which included the stability data from freeze/thaw, bench-top, autosampler and long–term stability test. For all stability studies, freshly prepared and stability testing QC samples were evaluated by using freshly prepared standard curves for the measurement. The concentrations obtained from all stability studies were compared with the freshly prepared QC samples, and the percentage concentration deviation was calculated. The analytes were considered stable in mouse plasma and brain when the concentration difference between the freshly prepared samples and the stability samples was less than 15%.

[3] = Stability of G–A in mouse brain tissue homogenate under handling conditions; assay type: in vitro ADME; details: for Observed Concentration ± S.D.: n = 6
Experimental: as §1

[4] = brain tissue, oral 200 mg/kg, n = 8
[5] = mouse, brain tissue, oral 200 mg/kg, n = 8
[6] = plasma, 3 Freeze/thaw cycles (−70 °C), nominal 0.80 μg/mL
[7] = plasma, 3 Freeze/thaw cycles (−70 °C), nominal 4.00 μg/mL
[8] = plasma, 3 Freeze/thaw cycles (−70 °C), nominal 10.0 μg/mL
[9] = plasma, Autosampler stability (4 °C; 8 h), nominal 0.80 μg/mL
[10] = plasma, Autosampler stability (4 °C; 8 h), nominal 4.00 μg/mL
[11] = plasma, Long–term stability (−70 °C; 1 month), nominal 0.80 μg/mL
[12] = plasma, Long–term stability (−70 °C; 1 month), nominal 4.00 μg/mL
[13] = plasma, Long–term stability (−70 °C; 1 month), nominal 10.0 μg/mL
[14] = brain tissue, 3 Freeze/thaw cycles (−70 °C), nominal 0.80 μg/mL
[15] = brain tissue, 3 Freeze/thaw cycles (−70 °C), nominal 4.00 μg/mL
[16] = brain tissue, 3 Freeze/thaw cycles (−70 °C), nominal 10.0 μg/mL
[17] = brain tissue, Autosampler stability (4 °C; 8 h), nominal 0.80 μg/mL
[18] = brain tissue, Autosampler stability (4 °C; 8 h), nominal 4.00 μg/mL
[19] = brain tissue, Autosampler stability (4 °C; 8 h), nominal 10.0 μg/mL
[20] = brain tissue, Long–term stability (−70 °C; 1 month), nominal 0.80 μg/mL
[21] = brain tissue, Long–term stability (−70 °C; 1 month), nominal 4.00 μg/mL
[22] = brain tissue, Long–term stability (−70 °C; 1 month), nominal 10.0 μg/mL

COC(=O)[C@@]12CC[C@]3(C)C([C@H](O)[C@H](O)[C@@]4([C@@H](C)O)COC(=O)C=C[C@H]43)[C@@]1(C)CC[C@@]1(C)CC=C(C)C[C@]12O (stereo partly drawn) [G–A, galphimine-A]
G–A Concentration Brain ([1]; 1440 min (24 h) after single oral 200 mg/kg, mean ± S.E.M., n = 8, 200 mg/kg): 0.32 ± 0.14 µg/mL
Tmax ([1]; ICR, mouse, brain, po, 200 mg/kg, brain tissue, oral 200 mg/kg, n = 8, read-out: Tmax (converted)): 1.36 h
A [1, 4]: 2.98 µg/mL
V/F [1, 4]: 68.16 (mg/kg)/(μg/mL)
k10 [1, 4]: 0.0008 min⁻¹
ka [1, 4]: 0.051 min⁻¹
Tmax ([1]; brain tissue, oral 200 mg/kg, n = 8, 200 mg/kg): 1.36 h
AUC(0-inf) [1, 5]: 58700 ng·h/mL
CL/F [1, 5]: 57 mL/min/kg
Cmax [1, 5]: 2740 ng/mL
MRT [1, 5]: 20.3 h
AUC(0-t) ([1]; mouse, brain tissue, oral 200 mg/kg, n = 8, read-out: AUC0-1440 min (converted)): 31900 ng·h/mL
concentration at 5 min ([1]; mouse, brain, 5 min after single oral 200 mg/kg, mean ± S.E.M., n = 8): 0 ng/mL
concentration at 10 min ([1]; mouse, brain, 10 min after single oral 200 mg/kg, mean ± S.E.M., n = 8): 880 ± 330 ng/mL
concentration at 15 min ([1]; mouse, brain, 15 min after single oral 200 mg/kg, mean ± S.E.M., n = 8): 1480 ± 580 ng/mL
concentration at 30 min ([1]; mouse, brain, 30 min after single oral 200 mg/kg, mean ± S.E.M., n = 8): 3440 ± 500 ng/mL
concentration at 60 min ([1]; mouse, brain, 60 min after single oral 200 mg/kg, mean ± S.E.M., n = 8): 3010 ± 590 ng/mL
concentration at 120 min ([1]; mouse, brain, 120 min after single oral 200 mg/kg, mean ± S.E.M., n = 8): 2500 ± 580 ng/mL
concentration at 240 min ([1]; mouse, brain, 240 min after single oral 200 mg/kg, mean ± S.E.M., n = 8): 2180 ± 480 ng/mL
concentration at 480 min ([1]; mouse, brain, 480 min after single oral 200 mg/kg, mean ± S.E.M., n = 8): 1780 ± 370 ng/mL
concentration at 720 min ([1]; mouse, brain, 720 min after single oral 200 mg/kg, mean ± S.E.M., n = 8): 550 ± 180 ng/mL
concentration at 1440 min ([1]; mouse, brain, 1440 min (24 h) after single oral 200 mg/kg, mean ± S.E.M., n = 8): 320 ng/mL
Time analyzable in the autosampler tray with acceptable precision and accuracy ([2]; plasma samples, 4 °C): over 8 h
Long-term storage stability (time stable) ([2]; plasma samples, −70 °C): over 1 month
Accuracy Bias [2, 6]: −1.00%
Observed Concentration ± S.D. [2, 6]: 0.79 ± 0.08 µg/mL
Accuracy Bias [2, 7]: 0.25%
Observed Concentration ± S.D. [2, 7]: 4.01 ± 0.14 µg/mL
Accuracy Bias [2, 8]: −0.70%
Observed Concentration ± S.D. [2, 8]: 9.93 ± 0.67 µg/mL
Accuracy Bias [2, 9]: 3.75%
Observed Concentration ± S.D. [2, 9]: 0.83 ± 0.05 µg/mL
Accuracy Bias [2, 10]: −1.75%
Observed Concentration ± S.D. [2, 10]: 3.93 ± 0.43 µg/mL
Observed Concentration ± S.D. ([2]; plasma, Autosampler stability (4 °C; 8 h), nominal 10.0 μg/mL): 10.10 ± 0.85 µg/mL
Accuracy Bias [2, 11]: −3.00%
Observed Concentration ± S.D. [2, 11]: 0.77 ± 0.06 µg/mL
Accuracy Bias [2, 12]: 6.50%
Observed Concentration ± S.D. [2, 12]: 4.26 ± 0.31 µg/mL
Accuracy Bias [2, 13]: −5.70%
Observed Concentration ± S.D. [2, 13]: 9.43 ± 0.83 µg/mL
Freeze/thaw stability ([2]; plasma, three cycles, stored at −70 °C and thawed to room temperature): stable
Time analyzable in the autosampler tray with acceptable precision and accuracy ([3]; brain tissue samples, 4 °C): over 8 h
Long-term storage stability (time stable) ([3]; brain tissue samples, −70 °C): over 1 month
Accuracy Bias [3, 14]: 3.75%
Observed Concentration ± S.D. [3, 14]: 0.83 ± 0.08 µg/mL
Accuracy Bias [3, 15]: 9.00%
Observed Concentration ± S.D. [3, 15]: 4.36 ± 0.34 µg/mL
Accuracy Bias [3, 16]: 3.60%
Observed Concentration ± S.D. [3, 16]: 10.36 ± 0.52 µg/mL
Accuracy Bias [3, 17]: 8.75%
Observed Concentration ± S.D. [3, 17]: 0.87 ± 0.11 µg/mL
Accuracy Bias [3, 18]: −10.0%
Observed Concentration ± S.D. [3, 18]: 3.60 ± 0.33 µg/mL
Accuracy Bias [3, 19]: −1.70%
Observed Concentration ± S.D. [3, 19]: 9.83 ± 0.43 µg/mL
Accuracy Bias [3, 20]: −10.00%
Observed Concentration ± S.D. [3, 20]: 0.72 ± 0.10 µg/mL
Accuracy Bias [3, 21]: −6.75%
Observed Concentration ± S.D. [3, 21]: 3.73 ± 0.41 µg/mL
Accuracy Bias [3, 22]: 4.30%
Observed Concentration ± S.D. [3, 22]: 10.43 ± 0.98 µg/mL
Freeze/thaw stability ([3]; brain tissue, three cycles, stored at −70 °C and thawed to room temperature): stable
